Source: ChEMBL document CHEMBL1201862, “PubChem BioAssay data set” (2004)
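Five concentrations, 48 hours, 96-well plates. Here, GI50 denotes the concentration required for 50% inhibition of growth.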 Calls of active or inactive are those of the source. No stated cut-off is given here; in the data, active = GI50 up to about 1.1 µM and inactive = higher.

Key:
Assay in all cases: NCI anticancer screen, dose series, 48 h
SF-539 = test system: SF-539
K562 = test system: K562
UACC-257 = test system: UACC-257
OVCAR-4 = test system: OVCAR-4
HL-60 = test system: HL-60
SK-MEL-5 = test system: SK-MEL-5
SK-OV-3 = test system: SK-OV-3
UACC-62 = test system: UACC-62
Malme-3M = test system: Malme-3M
SW-620 = test system: SW-620
SF-295 = test system: SF-295
LOX IMVI = test system: LOX IMVI
SNB-19 = test system: SNB-19
HCC 2998 = test system: HCC 2998
A498 = test system: A498
RPMI-8226 = test system: RPMI-8226
COLO 205 = test system: COLO 205
MOLT-4 = test system: MOLT-4
HOP-92 = test system: HOP-92
A549 = test system: A549

Measured: GI50

c1cc2nnsc2s1
inactive: SF-539 > 100 µM | K562 > 100 µM | UACC-257 > 100 µM | OVCAR-4 > 100 µM | HL-60 > 100 µM | SK-MEL-5 > 100 µM | SK-OV-3 > 100 µM | UACC-62 > 100 µM | Malme-3M > 100 µM | SW-620 39.2 µM | SF-295 > 100 µM | LOX IMVI 60 µM | SNB-19 > 100 µM | HCC 2998 > 100 µM | A498 > 100 µM | RPMI-8226 93.5 µM | COLO 205 42.3 µM | MOLT-4 > 100 µM | HOP-92 > 100 µM

O=c1c2cc(Br)cc(Br)c2nc(CCCl)n1CCO
inactive: SF-539 81.3 µM | A549 > 100 µM | K562 52.5 µM | UACC-257 72.9 µM | OVCAR-4 52.8 µM | HL-60 37.8 µM | SK-MEL-5 53.2 µM | SK-OV-3 58.7 µM | UACC-62 60.8 µM | Malme-3M 52.1 µM | SW-620 > 100 µM | SF-295 88.3 µM | LOX IMVI > 100 µM | HCC 2998 > 100 µM | A498 25 µM | RPMI-8226 34.8 µM | COLO 205 > 100 µM | MOLT-4 46.9 µM | HOP-92 28.8 µM

NNC(=O)c1ccccc1NC(=O)/C(=C/c1ccccc1)NC(=O)c1ccccc1
inactive: SF-539 > 100 µM | A549 > 100 µM | K562 > 100 µM | UACC-257 71.6 µM | OVCAR-4 > 100 µM | HL-60 76.9 µM | SK-MEL-5 > 100 µM | SK-OV-3 > 100 µM | UACC-62 > 100 µM | Malme-3M > 100 µM | SW-620 > 100 µM | SF-295 > 100 µM | LOX IMVI 68.1 µM | SNB-19 43 µM | HCC 2998 > 100 µM | A498 > 100 µM | RPMI-8226 > 100 µM | COLO 205 > 100 µM | MOLT-4 > 100 µM | HOP-92 > 100 µM

Nc1ccccc1C(=O)/C=C/c1ccccc1O
inactive: SF-539 78.7 µM | A549 45.5 µM | K562 29.8 µM | UACC-257 15.1 µM | OVCAR-4 48.6 µM | HL-60 22.8 µM | SK-MEL-5 65 µM | SK-OV-3 > 100 µM | UACC-62 57.1 µM | Malme-3M > 100 µM | SW-620 35.4 µM | SF-295 > 100 µM | LOX IMVI 43.8 µM | SNB-19 81.1 µM | HCC 2998 32.3 µM | A498 > 100 µM | RPMI-8226 27.5 µM | COLO 205 > 100 µM | MOLT-4 31.3 µM | HOP-92 20.6 µM

O=C(C=C1SCCS1)/C=C\c1ccc(Cl)cc1
inactive: SF-539 > 100 µM | A549 > 100 µM | K562 49.5 µM | UACC-257 80.2 µM | OVCAR-4 > 100 µM | HL-60 56.9 µM | SK-MEL-5 > 100 µM | SK-OV-3 > 100 µM | UACC-62 99.8 µM | Malme-3M > 100 µM | SW-620 > 100 µM | SF-295 > 100 µM | LOX IMVI 53.8 µM | SNB-19 > 100 µM | HCC 2998 26.4 µM | A498 > 100 µM | RPMI-8226 31.5 µM | COLO 205 > 100 µM | MOLT-4 > 100 µM | HOP-92 > 100 µM

Cc1ccc(Nc2nc(N)nc3c2ncn3C2OC(CO)C(O)C2O)cc1 (stereo not drawn)
inactive: SF-539 > 100 µM | A549 > 100 µM | K562 > 100 µM | UACC-257 > 100 µM | OVCAR-4 > 100 µM | HL-60 > 100 µM | SK-MEL-5 > 100 µM | SK-OV-3 > 100 µM | UACC-62 > 100 µM | Malme-3M > 100 µM | SW-620 > 100 µM | SF-295 > 100 µM | LOX IMVI > 100 µM | SNB-19 > 100 µM | HCC 2998 > 100 µM | A498 > 100 µM | RPMI-8226 > 100 µM | COLO 205 > 100 µM | MOLT-4 > 100 µM | HOP-92 > 100 µM
